Counter-ions that a name gives are not always drawn.
Legend:
[1] = test system: NO production in LPS-stimulated RAW 264.7 macrophages; assay: NO production (Griess assay) in LPS-stimulated macrophages; type: cell-based, murine; settings: RAW 264.7, LPS 100 ng/mL; for IC50: Mus musculus, RAW264.7, 24 h, Griess
Procedure: The anti-inflammatory potential of chalcones 1–7 was evaluated in macrophages cultured in the presence or absence (control) of LPS, as depicted in Figure 4. Under basal conditions (unstimulated, control), macrophages produce low levels of nitrites (≈12%). […] Each chalcone was tested at concentrations previously established as non-cytotoxic in macrophages, trying to ensure that observed changes in NO levels were not due to reduced cell viability.
The production of NO was evaluated by measuring nitrite accumulation in culture supernatants using the previously described Griess assay. Cells were seeded at a concentration of 5.0 × 10^4 cells/mL in a 96-well plate (200 μL/well) and allowed to stabilize overnight at 37 °C. Afterwards, the cells were treated with different concentrations of compound solutions and pre-incubated for 1 h at 37 °C. Subsequently, an LPS in PBS solution was added to each well, achieving a final concentration of 100 ng/mL, and the plate was left to incubate for 24 h. An amount of 150 μL of the cell culture supernatant was then transferred to a fresh 96-well plate, and an equal amount of Griess reagent [comprising a 1:1 mixture of 1% (w/v) sulphanilamide in 5% (v/v) phosphoric acid and 0.1% (w/v) naphthylethylenediaminedihydrochloride] was added. Following a 30 min incubation at room temperature in the dark, the absorbance was recorded at 550 nm using a Biotek Synergy HT plate reader (Biotek, CA, USA). The nitrite concentration in the supernatants was determined by comparing the absorbance of each sample to a sodium nitrite standard curve. The results, obtained from at least three independent experiments performed in duplicate, were expressed as a percentage of NO production by cells versus chemical concentration, relative to LPS condition (100%).
Figure 4 NO production by macrophages treated with LPS (100 ng/mL) or not (control) in the presence of chalcones 1–7. Results are expressed as a percentage of NO production by cells treated with LPS (100 ng/mL). Each value represents the mean ± SEM of four independent experiments in duplicate. Statistical analysis: one ANOVA with Dunnett’s multiple comparisons test, where p< 0.05 was considered significant. *** p < 0.005, relative to the control, and ^# p < 0.05, ^## p < 0.01, ^### p < 0.0005, and ^#### p < 0.0001, relative to LPS condition.

[2] = test system: iNOS protein levels in RAW264.7 macrophages; assay: Western blot analysis of iNOS expression in LPS-stimulated macrophages; type: cell-based, murine; settings: for iNOS expression level: normalized against LPS condition
Procedure: To investigate the underlying mechanism of action of the most promising brominated chalcones (1 and 2), their effects on iNOS protein levels were assessed in LPS-stimulated macrophages at different time points (4, 6, and 24 h). The non-treated (NT) condition, consisting of macrophages stimulated with LPS but receiving no chalcone treatment, was used as the reference for maximal iNOS induction under inflammatory conditions and served as a positive control. The selected concentrations (7.5 μM and 15 μM) were selected based on chalcones 1 and 2 cytocompatibility (Figure 3) and efficacy in reducing NO production (Figure 4). Since NO production is a direct consequence of iNOS enzymatic activity, where the enzyme catalyzes the conversion of L-arginine to NO following inflammatory stimulation such as LPS, this provides a functional readout of iNOS expression and activity.
Here, we focused on validating iNOS expression at the protein level by western blot (Figure 6). While gene-level expression was not assessed, it is well established that LPS stimulation induces both iNOS transcription and translation in RAW 264.7 macrophages. Moreover, changes observed at the protein level are often closely associated with upstream transcriptional or translational modulation. Therefore, quantifying iNOS protein levels provides a biologically relevant measure of the chalcones’ inhibitory effects on this key inflammatory mediator.
The expression of the iNOS enzyme was analyzed by western blot. RAW264.7 macrophages were seeded at a density of 1 × 10^6 cells/well in a 6-well plate and incubated for 24 h at 37 °C in a humidified atmosphere containing 5% CO2. After incubation, cells were treated with 7.5 µM or 15 µM of the most promising chalcones (1 and 2) for 30 min, followed by the addition of LPS to have a final concentration of 100 ng/mL. Cells were then incubated for 4, 6, or 24 h. At each time point, cells were washed with PBS and lysed in RIPA buffer. The lysates were collected in Eppendorf tubes and kept on ice, with intermittent vortexing to ensure thorough lysis. Samples were centrifuged at 18,000× g for 16 min at 4 °C, and the supernatant was collected. Total protein concentration was determined using the Pierce™ BCA Protein Assay Kit (Thermo Scientific, 23225, Waltham, MA, USA), following the manufacturer’s instructions. Equal amounts of protein (25 µg) were loaded onto Bolt™ 8% Bis-Tris Mini Protein Gels (Invitrogen™, NW00087BOX, Waltham, MA, USA) and separated via electrophoresis. Proteins were then transferred onto nitrocellulose membranes (Invitrogen™, IB24002) using the iBlot® 2 dry transfer system (Invitrogen™, Waltham, MA, USA). After transfer, membranes were sectioned to separate the iNOS bands from those of the housekeeping protein GAPDH. Membranes were blocked for 1 h at room temperature in TBS-T containing 5% BSA and subsequently incubated overnight at 4 °C with primary antibodies against iNOS (Cell Signaling Technology, 16713120S, Danvers, MA, USA) or GAPDH (Abcam, ab181602, Cambridge, UK), diluted in TBS-T with 1% BSA. On the following day, membranes were washed three times with TBS-T and incubated for 1 h at room temperature with an HRP-conjugated secondary antibody (Cell Signaling Technology, 7074S) diluted in TBS-T with 1% BSA. After three additional washes, signal detection was performed using Clarity™ Western ECL Substrate (Bio-Rad, 1705061, Hercules, CA, USA), and chemiluminescent signals were acquired using the Odyssey FC imaging system (LI-COR, Lincoln, NE, USA). Densitometric analysis of iNOS bands was performed using Image Studio™ Software (version 5.2, LI-COR, Lincoln, NE, USA), with values normalized to the corresponding GAPDH bands.
Figure 6 iNOS expression level after treatment of 4, 6, and 24 h with chalcones 1 and 2 in macrophage cell line. Results are expressed as volume arbitrary unit (A). […]

[3] = Resazurin cell viability assay in HaCaT keratinocytes; type: cell-based, human; settings: human, HaCaT keratinocytes, resazurin, read-out: IC50 (cell viability, cytotoxicity)
Procedure: (§1) To evaluate the effects of chalcones 1–7 on cell viability after 24 h, a resazurin assay was performed using two cell lines: human HaCaT keratinocytes (HaCaT, CLS 300493), representing the epidermal layer, and murine RAW 264.7 macrophages (RAW 264.7, ATCC TIB-71), which model immune cells involved in dermal inflammatory responses. For the keratinocyte cell line, all seven brominated and non-brominated chalcones were tested across a concentration range from 2.5 μM to 125 μM (Figure 2).
(§2) Human keratinocytes (HaCaT, CLS 300493, Eppelheim, Germany) were cultured in DMEM supplemented with heat-inactivated FBS, and a penicillin and streptomycin antibiotic solution. The cell culture of keratinocytes was washed with 6 mL of phosphate buffer solution with 0.05% EDTA (Sigma-Aldrich, St. Louis, MO, USA) and detached using 3 mL of 0.05% trypsin + 0.02% EDTA in PBS solution when the cells reached 70–80% confluence in cell culture flasks. DMEM was also used to cultivate the mouse macrophage cell line (RAW 264.7, ATCC TIB-71, Manassas, VA, USA) together with 10% (v/v) non-inactivated FBS, 1.5 g/L sodium bicarbonate, and 100 U/mL penicillin and 100 μg/mL streptomycin stock (antibiotic solution). The macrophage culture was mechanically detached using a cell scraper, and the final amount of DMEM media with the cells was sub-cultured in a 1:10 ratio to the cellular suspension.
(§3) The resazurin reduction assay was employed to evaluate the metabolic activity of human epidermal keratinocyte (HaCaT) and murine macrophage (RAW264.7) cell lines, as outlined in a previous study. In brief, HaCaT cells (1.0 × 10^5 cells/mL) and RAW264.7 cells (5.0 × 10^4 cells/mL) were seeded in 96-well plates (200 μL/well) and incubated overnight at 37 °C to allow for cell attachment. Following this, the cells were treated with different concentrations of the test compounds and kept at 37 °C for 24 h. After 20 h, resazurin (500 μM in sterile phosphate buffer solution, pH 7.4) was added to each well to achieve a final concentration of 50 μM, followed by an additional incubation of 4 h. Absorbance was then measured at wavelengths of 570 and 620 nm using a SpectraMax Plus 384 absorbance microplate spectrophotometer (Molecular Devices, San Jose, CA, USA). Each experiment was conducted in triplicate, with a minimum of three independent assays. The results were graphically presented as the percentage of cell viability versus chemical concentration, relative to the control.
(§4) Figure 2 Cytotoxicity of chalcones 1–7 using a resazurin reduction assay in HaCaT cells by comparison with the control. Bar graphs represent the mean ± SEM of at least three independent experiments performed in triplicate. Statistical analysis: one ANOVA with Dunnett’s multiple comparisons test, where p < 0.05 was considered significant when compared to the control condition. * p < 0.05, ** p < 0.01, and *** p < 0.0005.

HaCaT keratinocytes = assay: as above; type: cell-based, human; settings: HaCaT, 24 h
Procedure: as §1, §2, §3, §4

Nrf2 = assay: KeratinoSens assay, Nrf2 luciferase reporter; type: cell-based, human; settings: 100 µM, positive control
Procedure: The KeratinoSens™ assay was originally developed to assess the skin sensitization potential of Nrf2 activation, but it has also been utilized to evaluate the ability of natural compounds to induce this transcription factor [46, 47]. In this study, we assessed the capacity of chalcones 1 and 2 to activate Nrf2 after 24 and 48 h (Figure 8A–F).
Selected compounds (chalcones 1 and 2), and the positive control, DMF, were dissolved in sterile DMSO. Intermediate dilutions were prepared in culture medium, including the final concentration to be added to the 96-well plate, with a final volume of 200 µL per well. The KeratinoSens™ assay was conducted as previously described. In brief, cells were seeded at a density of 10,000 cells per well in 96-well white opaque plates (Greiner Bio-One GmbH, cat. no. 655083, Kremsmünster, Austria) and incubated for 24 h. The medium was then replaced with fresh medium containing 1% FBS and the test compounds, and cells were incubated for an additional 24 and 48 h. DMF was used as the positive control since it is a known Nrf2 activator. Cell viability was assessed in the same cells using resazurin. After 20 or 44 h of exposure to the test compounds, 50 µM of resazurin solution (in sterile PBS) was added to each well, and the plates were incubated for 4 h at 37 °C, 5% CO2 Following the resazurin incubation, the supernatant was transferred to a transparent 96-well plate, and absorbance was measured at 570 and 620 nm using a Synergy HT multi-mode microplate reader (BioTek, Bad Friedrichshall, Germany). To measure luciferase activity, cells in the white opaque 96-well plates were washed with 1× PBS. An equal volume of 1× PBS and lysis buffer (One-GLO Luciferase, cat. no. E6130, Promega, Madison, WI, USA) was added to the wells, and the plates were incubated for 20 min at room temperature. Luminescence was then measured using a FLUOstar OMEGA Microplate Reader (BMG Labtech GmbH, Ortenberg, Germany).
Figure 8 Nrf2 activation using the KeratinoSens™ assay in HaCaT cells transfected with an Nrf2 luciferase reporter construct, incubated for 24 h (A–C) or 48 h (D–F) with chalcones 1 and 2. DMF was used as a positive control. Data represent the results from four independent experiments. Non-linear regression analysis was performed using GraphPad Prism v.9.0.0 for Windows. The blue line represents the results of cell viability (% regarding the control) and the green line represents fold induction. Statistical analysis: one ANOVA with Dunnett’s multiple comparisons test, where significance includes. * p < 0.05, ** p < 0.01, *** p < 0.0005, and **** p < 0.0001.

**Q.** Which IC50 [1] does the source give for `COc1ccc(/C=C/C(=O)c2cc(OC)c(OC)cc2Br)cc1OC` [Chalcone 2] here?
**A.** 0.77 ± 0.31 µM

**Q.** What about the iNOS expression level ([2]; 7.5 µM, 4 h) of the same compound?
**A.** 38.9%

**Q.** And the “maximum iNOS suppression” value ([2]; 7.5 µM, 24 h)?
**A.** ~ 80%

**Q.** And the iNOS expression level ([2]; 7.5 µM, 24 h)?
**A.** 20.2%

**Q.** And the iNOS expression level ([2]; 15 µM, 4 h)?
**A.** 20.5%

**Q.** What about the iNOS expression level ([2]; 15 µM, 6 h) of the same compound?
**A.** 5.7%

**Q.** What about the iNOS suppression ([2]; 15 µM, 6 h, stable up to 24 h) of the same compound?
**A.** ~ 95%

**Q.** And the iNOS expression level ([2]; 15 µM, 24 h)?
**A.** 6.1%

**Q.** Which IC50 [1] does the source give for `COc1ccc(/C=C/C(=O)c2ccc(OC)c(OC)c2)cc1OC` [Chalcone 3] here?
**A.** 4.73 ± 0.67 µM

**Q.** And the “concentration that reduced NO production to levels similar to the control” value ([1]; 24 h)?
**A.** 125 µM

**Q.** And the IC50 at 24 h [3]?
**A.** 62.1 ± 1.07 µM

**Q.** What about the “reduction in cell viability” value (HaCaT keratinocytes; at 62.5 and 125 μM) of the same compound?
**A.** > 50%

**Q.** For `COc1ccc(/C=C2\CCc3cc(OC)c(OC)cc3C2=O)cc1OC` [Chalcone 7], which “reduction of NO production in LPS-stimulated cells” value ([1]; 24 h) is on record?
**A.** 12%

**Q.** What about the “maximal reduction in viability” value (HaCaT keratinocytes; significant effects only at 62.5 μM and 125 μM) of the same compound?
**A.** ≤ 15%

**Q.** Which “Nrf2 activation, fold increase” value (Nrf2) does the source give for `COC(=O)/C=C/C(=O)OC` [DMF, dimethyl fumarate, reference compound] here?
**A.** 8.36 fold

From paper PMC12299847, “Macroalgae-Inspired Brominated Chalcones as Cosmetic Ingredients with the Potential to Target Skin Inflammaging” (Marine Drugs, 2025)
